# Reference: patent publication US6482921B1, “Uridyl peptide antibiotic (UPA) derivatives, their synthesis and use” (Essential Therapeutics, Inc., priority 1999, dated 2002)
# Where two headings read alike, the source gives them in different places.
# Experiments:
# [1] = system: Pseudomonas aeruginosa PAM 1154; experiment: MIC broth microdilution, P. aeruginosa PAM 1154 (OprM::Hg); type: cell-based; settings: P. aeruginosa PAM 1154 OprM::Hg
# [2] = system: Mycobacterium tuberculosis TN913; experiment: MIC agar dilution, M. tuberculosis TN913; type: cell-based
# [3] = system: Pseudomonas aeruginosa PAM 1020; experiment: MIC broth microdilution, P. aeruginosa PAM 1020 (wild type); type: cell-based; settings: P. aeruginosa PAM 1020
# [4] = system: Pasteurella multocida pm002; experiment: MIC broth microdilution, P. multocida pm002 (wild type); type: cell-based
# [5] = system: Staphylococcus aureus ATCC 29213; experiment: MIC broth microdilution, S. aureus ATCC 29213 (wild type); type: cell-based; settings: S. aureus ATCC 29213
# [6] = system: Escherichia Coli MC 4100 AcrAB; experiment: MIC broth microdilution, E. coli MC 4100 AcrAB (ΔAcrAB); type: cell-based; settings: E. coli AcrAB
# Escherichia Coli MC 4100 = experiment: MIC broth microdilution, E. coli MC 4100 (wild type); type: cell-based; settings: E. coli MC 4100
# [7] = system: Mycobacterium tuberculosis H37Rv; experiment: MIC agar dilution, M. tuberculosis H37Rv; type: cell-based
# [8] = system: Pseudomonas aeruginosa PAM 1135; experiment: MIC broth microdilution, P. aeruginosa PAM 1135 (high level UPA resistance); type: cell-based; settings: P. aeruginosa PAM 1135 UPA1^r
# [9] = system: Staphylococcus aureus 8325-4; experiment: MIC broth microdilution, S. aureus 8325-4 (wild type); type: cell-based; settings: S. aureus 8325-4
# [10] = system: Escherichia Coli MC 4100 AcrAB UPA3r; experiment: MIC broth microdilution, E. coli MC 4100 AcrAB UPA3r (ΔAcrAB, UPA resistant); type: cell-based; settings: E. coli AcrAB UPA3^r
# [11] = system: Pseudomonas aeruginosa PAM 1323; experiment: MIC broth microdilution, P. aeruginosa PAM 1323 (medium level UPA resistance); type: cell-based
# [12] = system: Mycobacterium smegmatis ATCC 19420; experiment: MIC broth microdilution, M. smegmatis ATCC 19420; settings: 72 hours at 35° C., CAMHB
# [13] = system: Mycobacterium fortuitum ATCC 6841; experiment: MIC broth microdilution, M. fortuitum ATCC 6841; settings: 72 hours at 35° C., CAMHB
# [14] = agar dilution, Middlebrook 7H10 agar, four weeks at 35° C., 0, 1, 10 and 30 tested
Structure (SMILES),MIC (μg/ml) Broth microdilution [1],MIC TN913 (SENSITIVE) [2],MIC (μg/ml) Broth microdilution [3],MIC (μg/ml) Broth microdilution [4],MIC (μg/ml) Broth microdilution [5],MIC (μg/ml) Broth microdilution [6],MIC (μg/ml) Broth microdilution (Escherichia Coli MC 4100),MIC H37RV (SENSITIVE) [7],MIC (μg/ml) Broth microdilution [8],MIC (μg/ml) Broth microdilution [9],MIC (μg/ml) Broth microdilution [10],MIC (μg/ml) Broth microdilution [11],MIC Broth microdilution M. smegmatis ATCC19420 [12],MIC Broth microdilution M. fortuitum ATCC 6841 [13],"MIC TN913 (SENSITIVE) [2, 14]","MIC H37RV (SENSITIVE) [7, 14]"
CC(C)C[C@H](NC(=O)N[C@@H](Cc1c[nH]c2ccccc12)C(=O)O)C(=O)N[C@H](C(=O)NC[C@H]1C[C@@H](O)[C@H](n2ccc(=O)[nH]c2=O)O1)[C@H](C)N(C)C(=O)CN [Compound 109],<1 µg/mL,30 µg/mL,4 µg/mL,128 µg/mL,>512 µg/mL,<1 µg/mL,128 µg/mL,>30 µg/mL,>512 µg/mL,>512 µg/mL,8 µg/mL,128 µg/mL,–,–,–,–
"CC(N)C(=O)N(C)C(C)C(NC(=O)C(Cc1ccccc1)NC(=O)NC(Cc1ccc2ccccc2c1)C(=O)O)C(=O)NCC1CC(O)C(n2ccc(=O)[nH]c2=O)O1 [Compound 133, 1-[5′-[(2S,3S)-N^3-L-Alanyl-N^2-[N-[[(1S)-1-carboxy-2-naphthalenethyl]carbamoyl]-L-phenylalanyl]-N^3-methyl-2,3-diaminobutyramido]-3′,5′-dideoxy-α-L-arabinofuranosyl]uracil]",32 µg/mL,30 µg/mL,64 µg/mL,256 µg/mL,256 µg/mL,<1 µg/mL,256 µg/mL,30 µg/mL,>512 µg/mL,128 µg/mL,32 µg/mL,>512 µg/mL,8 µg/mL,32 µg/mL,–,–
"CC(N)C(=O)N(C)C(C)C(NC(=O)C(Cc1ccc(C(F)(F)F)cc1)NC(=O)NC(Cc1c[nH]c2ccccc12)C(=O)O)C(=O)NCC1CC(O)C(n2ccc(=O)[nH]c2=O)O1 [Compound 146, 1-[5′-[(2S,3S)-N^3-L-Alanyl-N^2-[N-[[(1S)-1-carboxy-2-indol-3-ylethyl]carbamoyl]-L-4-(trifluoromethyl)phenylalanyl]-N^3-methyl-2,3-diaminobutyramido]-3′,5′-dideoxy-α-L-arabinofuranosyl]uracil]",32 µg/mL,10 µg/mL,256 µg/mL,64 µg/mL,512 µg/mL,2 µg/mL,512 µg/mL,10 µg/mL,>512 µg/mL,256 µg/mL,64 µg/mL,>512 µg/mL,–,–,–,–
"CC(C(NC(=O)C(Cc1ccccc1)NC(=O)NC(Cc1c[nH]c2ccccc12)C(=O)O)C(=O)NCC1CC(O)C(n2ccc(=O)[nH]c2=O)O1)N(C)C(=O)C(N)Cc1ccccc1 [Compound 156, 1-[5′-[(2S,3S)-N^2-[N-[[(1S)-1-Carboxy-2-indol-3-ylethyl]carbamoyl]-L-phenylalanyl]-N^3-L-phenylalanyl-N^3-methyl-2,3-diaminobutyramido]-3′,5′-dideoxy-α-L-arabinofuranosyl]uracil]",32 µg/mL,–,32 µg/mL,256 µg/mL,>512 µg/mL,4 µg/mL,512 µg/mL,–,256 µg/mL,>512 µg/mL,512 µg/mL,256 µg/mL,16 µg/mL,256 µg/mL,–,–
"CC(N)C(=O)N(C)C(C)C(NC(=O)C(Cc1ccc(F)cc1)NC(=O)NC(Cc1ccc(O)cc1)C(=O)O)C(=O)NCC1CC(O)C(n2ccc(=O)[nH]c2=O)O1 [Compound 157, 1-[5′-[(2S,3S)-N^3-L-Alanyl-N^2-[N-[[(1S)-1-carboxy-4-hydroxyphenethyl]carbamoyl]-L-4-fluorophenylalanyl]-N^3-methyl-2,3-diaminobutyramido]-3′,5′-dideoxy-α-L-arabinofuranosyl]uracil]",16 µg/mL,10 µg/mL,128 µg/mL,256 µg/mL,>512 µg/mL,<1 µg/mL,4 µg/mL,10 µg/mL,>512 µg/mL,512 µg/mL,<1 µg/mL,>512 µg/mL,–,–,–,–
C[C@H](N)C(=O)N(C)[C@@H](C)[C@H](NC(=O)[C@H](Cc1ccccc1)NC(=O)N[C@@H](Cc1ccc(O)cc1)C(=O)O)C(=O)NC[C@H]1C[C@@H](O)[C@H](n2ccc(=O)[nH]c2=O)O1 [Compound 160],8 µg/mL,–,16 µg/mL,256 µg/mL,512 µg/mL,<1 µg/mL,32 µg/mL,–,>512 µg/mL,512 µg/mL,4 µg/mL,>512 µg/mL,16 µg/mL,128 µg/mL,–,–
"CC(N)C(=O)N(C)C(C)C(NC(=O)C(Cc1ccccc1)NC(=O)NC(Cc1c[nH]c2ccccc12)C(=O)O)C(=O)NCC1CC(O)C(n2ccc(=O)[nH]c2=O)O1 [Compound 164, 1-[5′-[(2S,3S)-N^3-L-Alanyl-N^2-[N-[[(1S)-1-carboxy-2-indol-3-ylethyl]carbamoyl]-L-phenylalanyl]-N^3-methyl-2,3-diaminobutyramido]-3′,5′-dideoxy-α-L-arabinofuranosyl]uracil]",4 µg/mL,10 µg/mL,16 µg/mL,128 µg/mL,256 µg/mL,<1 µg/mL,512 µg/mL,10 µg/mL,256 µg/mL,128 µg/mL,64 µg/mL,256 µg/mL,–,–,–,–
"C[C@H](NC(=O)N[C@@H](Cc1c[nH]c2ccccc12)C(=O)O)C(=O)N[C@H](C(=O)N/C=C1/C[C@@H](O)[C@H](n2ccc(=O)[nH]c2=O)O1)[C@H](C)N(C)C(=O)[C@@H](N)Cc1cccc(O)c1 [Pacidamycin 4, reference compound]",–,–,–,–,–,–,–,–,–,–,–,–,–,–,>30 µg/mL,>30 µg/mL
